Data reported in ChEMBL document CHEMBL4011595, “Design, synthesis and structure-activity relationship studies of novel free fatty acid receptor 1 agonists bearing amide linker” (Bioorg Med Chem, 2017).

Columns and labels:
[1] = molecular target: T1, Free fatty acid receptor 1 (Homo sapiens, UniProt O14842); experiment: Agonist activity at human FFA1 expressed in CHO cells assessed as increase in intracellular Ca2+ flux at 1 uM measured for 90 secs by Fluo4-AM dye based FLIPR assay relative to control; assay type: functional, cell-based
T1 sequence (O14842 whole entry): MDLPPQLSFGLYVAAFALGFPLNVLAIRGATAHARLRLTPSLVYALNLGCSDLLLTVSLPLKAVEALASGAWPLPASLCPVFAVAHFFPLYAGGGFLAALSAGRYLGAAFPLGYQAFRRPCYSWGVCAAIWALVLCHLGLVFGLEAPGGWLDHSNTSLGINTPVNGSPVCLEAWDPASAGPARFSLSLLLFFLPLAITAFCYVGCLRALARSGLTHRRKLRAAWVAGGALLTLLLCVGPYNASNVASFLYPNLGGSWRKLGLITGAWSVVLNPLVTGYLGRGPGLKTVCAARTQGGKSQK

[2] = tested on: Mus musculus; experiment: Antidiabetic activity in HFD/STZ-induced type2 diabetic C57BL/6 mouse assessed as decrease in blood glucose AUC at 20 mg/kg, po administered as single dose 60 mins prior to glucose challenge measured 120 mins post dose by OGTT relative to control; assay type: functional; parameters: scale not given: the % may be the effect or the level left
[3] = tested on: Mus musculus; experiment: Decrease in plasma glucose level in po dosed ICR mouse 60 mins before oral glucose challenge by OGTT method; assay type: functional, organism-based; conditions: TDE = time-dependent effect
[4] = tested on: Mus musculus; experiment: Anti-diabetic activity in ICR mouse assessed as reduction in blood glucose level at 200 mg/kg, po pretreated for 60 mins followed by glucose challenge measured after 120 mins by OGTT relative to control; assay type: functional; parameters: scale not given: the % may be the effect or the level left
[5] = molecular target: T1, Free fatty acid receptor 1; experiment: Agonist activity at FFA1 (unknown origin)
[6] = tested on: Mus musculus; experiment: Anti-diabetic activity in ICR mouse assessed as reduction in blood glucose AUC at 50 mg/kg, po pretreated for 60 mins followed by glucose challenge measured after 120 mins by OGTT relative to control; assay type: functional; parameters: scale not given: the % may be the effect or the level left
[7] = tested on: Mus musculus; experiment: Anti-diabetic activity in ICR mouse assessed as reduction in blood glucose level at 50 mg/kg, po pretreated for 60 mins followed by glucose challenge measured after 120 mins by OGTT relative to control; assay type: functional; parameters: scale not given: the % may be the effect or the level left
[8] = tested on: Mus musculus; experiment: Antidiabetic activity in HFD/STZ-induced type2 diabetic C57BL/6 mouse assessed as decrease in blood glucose excursion administered as single oral dose pretreated for 60 mins followed by glucose challenge after 120 mins by OGTT; assay type: functional
[9] = tested on: Mus musculus; experiment: Antidiabetic activity in HFD/STZ-induced type2 diabetic C57BL/6 mouse assessed as decrease in blood glucose AUC at 100 mg/kg, po administered as single dose 60 mins prior to glucose challenge measured 120 mins post dose by OGTT relative to control; assay type: functional; parameters: scale not given: the % may be the effect or the level left

SMILES | Activity [1] [%] | also measured
Cc1ccccc1C(=O)Nc1ccc(CCC(=O)O)cc1 | 5.67 | –
Cc1cc(OCCCS(C)(=O)=O)cc(C)c1-c1cccc(COc2ccc3c(c2)OC[C@H]3CC(=O)O)c1 [FASIGLIFAM] | 96.3 | Activity [2]: 39.1%
O=C(O)CCc1ccc(NC(=O)c2cccc(Cl)c2)cc1 | 25.4 | Activity [3]: Tde
Cc1ccc(C(=O)Nc2ccc(CCC(=O)O)cc2)cc1 | 19.4 | –
O=C(O)CCc1ccc(NC(=O)c2ccccc2)cc1 | 18.8 | –
CN(C)C(=N)NC(=N)N [METFORMIN] | – | Activity [4]: 27.8%
CC#C[C@@H](CC(=O)O)c1ccc(NC(=O)C(=O)Nc2cccc(C(C)(C)C)c2)cc1 | – | EC50 [5]: 4 nM
O=C(O)c1ccc(NC(=O)c2ccc(C(=O)c3ccccc3)cc2)cc1 | 15.3 | –
COc1ccccc1C(=O)Nc1ccc(CCC(=O)O)cc1 | 1.26 | –
O=C(O)CCc1ccc(NCc2cccc(Oc3ccccc3)c2)cc1 | 83.8 | –
O=C(O)CCc1ccc(NC(=O)c2ccccc2[N+](=O)[O-])cc1 | 0.19 | –
COc1cccc(C(=O)Nc2ccc(CCC(=O)O)cc2)c1 | 19.8 | –
CC(C)(C)c1ccc(C(=O)Nc2ccc(CCC(=O)O)cc2)cc1 | 21.4 | Activity [3]: Tde
O=C(O)CCc1ccc(NC(=O)c2ccc(Cl)cc2)cc1 | 17.9 | –
Cc1cccc(C(=O)Nc2ccc(CCC(=O)O)cc2)c1 | 29.4 | Activity [6]: 20.3%; Activity [3]: Tde
O=C(O)CCc1ccc(NC(=O)c2cccs2)cc1 | 13.8 | –
O=C(O)CCc1ccc(NC(=O)c2cccc(Oc3ccccc3)c2)cc1 | 34.3 | Activity [6]: 12.8%; Activity [3]: Tde
O=C(O)CCc1ccc(NC(=O)c2cccnc2)cc1 | 4.29 | –
O=C(O)CCc1ccc(NC(=O)c2ccsc2)cc1 | 15.4 | –
Cc1cccc(C)c1-c1cccc(C(=O)Nc2ccc(CCC(=O)O)cc2)c1 | 45.8 | Activity [6]: 23.7%; Activity [3]: Tde; Activity [7]: 23.7%; Activity [8]: Dose-dependent effect; Activity [9]: 29.1%
O=C(O)CCc1ccc(NC(=O)c2ccccc2Cl)cc1 | 7.73 | –
